In patent US20230045421A1 (priority 2018, published 2023):

Each molecule was assayed on HBV rcDNA (assay: HepDE19 assay with bDNA quantitation of HBV rcDNA). Conditions: HepDE19 assay, inhibition of formation of rcDNA; read-out: DE-19bDNA EC50.
Type: cell-based, hepatitis B virus
Outline: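 Compounds, top concentration 25 μM in 8-point duplicate series, were applied to Tet-free HepDE19 cultures for 7 days. Branched-DNA quantitation of HBV rcDNA against untreated wells gave EC50 and EC90 by 4-parameter fit. Viability (CC50) came from ATP luminescence on parallel plates incubated 4 days.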

| SMILES | EC50 [µM] |
| --- | --- |
| CC(c1c[nH]c(=O)c2ccccc12)N(C(=O)Nc1ccc(F)c(Cl)c1)C1CC1 (single isomer, unassigned) [Compound 68, 3-(3-Chloro-4-fluorophenyl)-1-cyclopropyl-1-(1-(1-oxo-1,2-dihydroisoquinolin-4-yl)ethyl)urea] | 0.06 |
| CC(c1c[nH]c(=O)c2ccccc12)N(CCC#N)C(=O)Nc1ccc(F)c(Cl)c1 (single isomer, unassigned) [Compound 113, 3-(3-Chloro-4-fluorophenyl)-1-(2-cyanoethyl)-1-(1-(1-oxo-1,2-dihydroisoquinolin-4-yl)ethyl)urea] | 0.06 |
| CC(c1c[nH]c(=O)c2ccccc12)N(CC[C@@H](C)O)C(=O)Nc1ccc(F)c(Cl)c1 (single isomer, unassigned) [Compound 211] | 2.7 |
| CC(c1c[nH]c(=O)c2ccccc12)N(CCCCO)C(=O)Nc1ccc(F)c(Cl)c1 (single isomer, unassigned) [Compound 149, 3-(3-Chloro-4-fluorophenyl)-1-(4-hydroxybutyl)-1-(1-(1-oxo-1,2-dihydroisoquinolin-4-yl)ethyl)urea] | 3.3 |
| CC(c1c[nH]c(=O)c2ccccc12)N(Cc1c[nH]nn1)C(=O)Nc1ccc(F)c(Cl)c1 (single isomer, unassigned) [Compound 267, 1-((2H-1,2,3-Triazol-4-yl)methyl)-3-(3-chloro-4-fluorophenyl)-1-(1-(1-oxo-1,2-dihydroisoquinolin-4-yl)ethyl)urea] | 0.35 |
| Cc1cc(NC(=O)N(C)C(C)c2c(C)[nH]c(=O)c3ccccc23)ccc1F (single isomer, unassigned) [Compound 237, 3-(4-Fluoro-3-methylphenyl)-1-methyl-1-(1-(3-methyl-1-oxo-1,2-dihydroisoquinolin-4-yl)ethyl)urea] | 0.04 |
| CC(c1c[nH]c(=O)c2ccccc12)N(CC(C)(C)CO)C(=O)Nc1ccc(F)c(Cl)c1 (single isomer, unassigned) [Compound 209, 3-(3-Chloro-4-fluorophenyl)-1-(3-hydroxy-2,2-dimethylpropyl)-1-(1-(1-oxo-1,2-dihydroisoquinolin-4-yl)ethyl)urea] | 7.9 |
| CC(c1cnc(N(C)C)c2ccccc12)N(C)C(=O)Nc1ccc(F)c(Cl)c1 (single isomer, unassigned) [Compound 233, 3-(3-Chloro-4-fluorophenyl)-1-(1-(1-(dimethylamino)isoquinolin-4-yl)ethyl)-1-methylurea] | 14 |
| CC(c1c[nH]c(=O)c2ccccc12)N(CC1CCOCC1)C(=O)Nc1ccc(F)c(Cl)c1 (single isomer, unassigned) [Compound 142, 3-(3-Chloro-4-fluorophenyl)-1-(1-(1-oxo-1,2-dihydroisoquinolin-4-yl)ethyl)-1-((tetrahydro-2H-pyran-4-yl)methyl)urea] | 0.04 |
| CC(c1cnc(OCc2nc[nH]n2)c2ccccc12)N(C)C(=O)Nc1ccc(F)c(Cl)c1 (single isomer, unassigned) [Compound 146, 1-(1-(1-((1H-1,2,4-Triazol-3-yl)methoxy)isoquinolin-4-yl)ethyl)-3-(3-chloro-4-fluorophenyl)-1-methylurea] | 0.05 |
| CC(c1cnc(OCc2ncn(C)n2)c2ccccc12)N(C)C(=O)Nc1ccc(F)c(Cl)c1 (single isomer, unassigned) [Compound 132, 3-(3-Chloro-4-fluorophenyl)-1-methyl-1-(1-(1-((1-methyl-1H-1,2,4-triazol-3-yl)methoxy)isoquinolin-4-yl)ethyl)urea] | 0.06 |
| COCCCN(C(=O)Nc1ccc(F)c(Cl)c1)C(C)c1c[nH]c(=O)c2ccccc12 (stereo not shown) [Compound 80] | 0.03 |

Same assay, conditions: HepDE19 assay, inhibition of formation of relaxed circular DNA (rcDNA), bDNA quantitation; read-out: DE-19bDNA EC50

| SMILES | EC50 [µM] |
| --- | --- |
| CC(c1c[nH]c(=O)c2ccccc12)N(Cc1ccccn1)C(=O)Nc1ccc(F)c(Cl)c1 (single isomer, unassigned) [Compound 305, 3-(3-Chloro-4-fluorophenyl)-1-(1-(1-oxo-1,2-dihydroisoquinolin-4-yl)ethyl)-1-(pyridin-2-ylmethyl) urea] | 0.59 |
| CC(c1c[nH]c(=O)c2c(F)c(F)ccc12)N(C)C(=O)NCc1ccc(F)c(Cl)c1 (single isomer, unassigned) [Compound 497, 3-(3-Chloro-4-fluorobenzyl)-1-(1-(7,8-difluoro-1-oxo-1,2-dihydroisoquinolin-4-yl)ethyl)-1-methylurea] | 0.26 |
| CC(C)CN(C(=O)Nc1ccc(F)c(Cl)c1)C(C)c1cn(C)c(=O)c2cc(F)c(F)cc12 (single isomer, unassigned) [Compound 343, 3-(3-Chloro-4-fluorophenyl)-1-(1-(6,7-difluoro-2-methyl-1-oxo-1,2-dihydroisoquinolin-4-yl)ethyl)-1-isobutylurea] | 0.006 |
| CC(C)CN(C(=O)Nc1ccc(F)c(Cl)c1)C(C)c1c[nH]c(=O)c2c(F)c(F)ccc12 (single isomer, unassigned) [Compound 338, 3-(3-Chloro-4-fluorophenyl)-1-(1-(7,8-difluoro-1-oxo-1,2-dihydroisoquinolin-4-yl)ethyl)-1-isobutylurea] | 0.8 |
| CC(c1cnc(C#N)c2ccccc12)N(C)C(=O)Nc1ccc(F)c(Cl)c1 (single isomer, unassigned) [Compound 337, 3-(3-Chloro-4-fluorophenyl)-1-(1-(1-cyanoisoquinolin-4-yl)ethyl)-1-methylurea] | 0.25 |
| CC(c1c[nH]c(=O)c2cc(F)c(F)cc12)N(C)C(=O)NCc1ccc(F)c(F)c1 (single isomer, unassigned) [Compound 477, 1-(1-(6,7-Difluoro-1-oxo-1,2-dihydroisoquinolin-4-yl)ethyl)-3-(3,4-difluorobenzyl)-1-methylurea] | 10 |
| CC(c1c[nH]c(=O)c2cc(F)c(F)cc12)N(C)C(=O)Nc1ccc(F)c(C(F)F)c1 (single isomer, unassigned) [Compound 501, 1-(1-(6,7-Difluoro-1-oxo-1,2-dihydroisoquinolin-4-yl)ethyl)-3-(3-(difluoromethyl)-4-fluorophenyl)-1-methylurea] | 0.73 |
| CC(c1c[nH]c(=O)c2cc(F)c(F)cc12)N(C)C(=O)Nc1cc(F)c(F)c(F)c1 (single isomer, unassigned) [Compound 414, 1-(1-(6,7-Difluoro-1-oxo-1,2-dihydroisoquinolin-4-yl)ethyl)-3-(3,4,5-trifluorophenyl)-1-methylurea] | 4.8 |
| CC(c1c[nH]c(=O)c2c(F)c(F)ccc12)N(C)C(=O)Nc1cc(Cl)c(F)c(Cl)c1 (single isomer, unassigned) [Compound 452, 3-(3,5-Dichloro-4-fluorophenyl)-1-(1-(7,8-difluoro-1-oxo-1,2-dihydroisoquinolin-4-yl)ethyl)-1-methylurea] | 0.047 |
| CC(c1c[nH]c(=O)c2cc(F)c(F)cc12)N(C)C(=O)Nc1ccc2cc[nH]c2c1 (single isomer, unassigned) [Compound 486, 1-(1-(6,7-Difluoro-1-oxo-1,2-dihydroisoquinolin-4-yl)ethyl)-3-(1H-indol-6-yl)-1-methylurea] | 0.2 |

Same assay, conditions: Hepatitis B virus, HepDE19, HepDE19 assay, inhibition of formation of rcDNA; read-out: DE-19bDNA EC50

| SMILES | EC50 [µM] |
| --- | --- |
| CC(C)CN(C(=O)Nc1ccc(F)c(Cl)c1)C(C)c1c[nH]c(=O)c2cnccc12 (racemic) [Compound 154, 3-(3-Chloro-4-fluorophenyl)-1-isobutyl-1-(1-(1-oxo-1,2-dihydro-2,7-naphthyridin-4-yl)ethyl)urea] | 0.02 |
| CC(C)CN(C(=O)Nc1ccc(F)c(Cl)c1)C(C)c1c[nH]c(=O)c2cc(F)c(F)cc12 (single isomer, unassigned) [Compound 280, 3-(3-Chloro-4-fluorophenyl)-1-(1-(6,7-difluoro-1-oxo-1,2-dihydroisoquinolin-4-yl)ethyl)-1-isobutylurea] | 0.21 |
| CC(c1c[nH]c(=O)c2cc(F)ccc12)N(C)C(=O)Nc1ccc(F)c(Cl)c1 (racemic) [Compound 257, 3-(3-Chloro-4-fluorophenyl)-1-(1-(7-fluoro-1-oxo-1,2-dihydroisoquinolin-4-yl)ethyl)-1-methylurea] | 0.033 |
| [2H]C([2H])([2H])C([2H])([2H])N(C(=O)Nc1ccc(F)c(Cl)c1)[C@H](C)c1c[nH]c(=O)c2ccccc12 [Compound 99, (R)-3-(3-Chloro-4-fluorophenyl)-1-(ethyl-d5)-1-(1-(1-oxo-1,2-dihydroisoquinolin-4-yl)ethyl)urea] | 0.03 |
| CC(c1c[nH]c(=O)c2cnccc12)N(CCCO)C(=O)Nc1ccc(F)c(Cl)c1 (stereo not shown) [Compound 159, 3-(3-Chloro-4-fluorophenyl)-1-(3-hydroxypropyl)-1-(1-(1-oxo-1,2-dihydro-2,7-naphthyridin-4-yl)ethyl)urea] | 0.1 |
| Cc1cc(NC(=O)N(C)[C@H](C)c2c[nH]c(=O)c3ccccc23)ccc1F [Compound 32, (R)-3-(4-Fluoro-3-methylphenyl)-1-methyl-1-(1-(1-oxo-1,2-dihydroisoquinolin-4-yl)ethyl)urea] | 0.03 |
| C[C@H](c1c[nH]c(=O)c2ccccc12)N(CC(F)F)C(=O)Nc1ccc(F)c(Cl)c1 [Compound 96, (R)-3-(3-Chloro-4-fluorophenyl)-1-(2,2-difluoroethyl)-1-(1-(1-oxo-1,2-dihydroisoquinolin-4-yl)ethyl)urea] | 0.22 |
| COc1ccc2c(C(C)N(C)C(=O)Nc3ccc(F)c(Cl)c3)c[nH]c(=O)c2c1 (racemic) [Compound 173, 3-(3-Chloro-4-fluorophenyl)-1-(1-(7-methoxy-1-oxo-1,2-dihydroisoquinolin-4-yl)ethyl)-1-methylurea] | 0.38 |

Same assay, conditions: Hepatitis B virus, HepDE19, read-out: DE-19bDNA EC50 (μM), HepDE19 assay, inhibition of formation of rcDNA

| SMILES | EC50 [µM] |
| --- | --- |
| C[C@H](c1c[nH]c(=O)c2ccccc12)N(C)C(=O)Nc1ccnc(Cl)c1 [Compound 94, (R)-3-(2-Chloropyridin-4-yl)-1-methyl-1-(1-(1-oxo-1,2-dihydroisoquinolin-4-yl)ethyl)urea] | 1 |
